Key:
Format in all cases: in vivo, mouse
Abeta = Abeta immunohistochemistry (6E10 antibody) of brain sections after ERGO treatment; conditions: ERGO-treated versus non-treated 5XFAD mice, approx. 4 months of age
Procedure: To confirm the in vivo observations, animals were perfused, and the brain sections were stained with anti-Abeta antibody, 6E10. […] In particular, we observed a clear difference in the hippocampus, pyramidal cortex and thalamus of non-treated compared to ERGO-treated 5XFAD mice (FIG. 3L, 3.30, 3.3R).
Quantitative analysis of the PET imaging and IHC data was performed using imageJ software. The data was imported to GraphPad Prism version 9 for Mac (GraphPad Software, San Diego, Calif., USA) for statistical analysis. Differences between groups were tested using unpaired t-test.

oxidative stress [1] = assay: [11C]ERGO PET imaging of oxidative stress after ERGO treatment; conditions: ERGO-treated versus non-treated 5XFAD mice, 20-min dynamic scan after IV injection
Procedure: To address our primary question whether longitudinal consumption of ERGO as a potent antioxidant benefit the brain, three cohorts of animals (n=12 non-treated WT control, n=12 non-treated 5XFAD, and n=18 ERGO-treated 5XFAD) were used (FIG. 3.2A). Starting at the age of 8 weeks, the animals were treated with high doses of ERGO solution (25-50 mg/Kg) formulated in double distilled (dd) water via oral gavage three times a week over the course of eight weeks. To reduce bias in the behavioral experiments with regard to the potential stress during gavage treatment, non-treated animals underwent the identical gavage process with the vehicle, water, only. The efficacy of the therapy was evaluated by behavioral testing, followed by three different non-invasive PET imaging sessions to assess biomarkers related to AD pathology. In addition to assessing Abeta levels and glucose metabolism using the [^11C]PIB and [^18F]FDG probes, respectively; we also tested for the first time whether oxidative stress could be used as an indicator of response to therapy using the [^11C]ERGO PET radioligand. Finally, animals were euthanized, and the brains were collected for immunohistochemical analysis.
Thus, in this study, [^11C]ERGO PET radioligand was used to assess the fluctuation in oxidative stress with respect to ERGO therapy. […]

oxidative stress [2] = assay: Dynamic microPET uptake and retention of [11C]ERGO in brains of 5XFAD versus WT mice; conditions: 10-month-old, n=4, 14.8 MBq in 0.1 mL via tail vein
Procedure: Dynamic uptake and retention of [^11C]ERGO radioligand. Two cohorts of age-matched mice (10-month-old, n=4, each), including 5XFAD and WT animals, were injected with a consistent amount of 14.8 MBq of [^11C]ERGO in 0.1 mL via the tail vein prior to acquiring dynamic imaging. […] In this work, we decided to run 20-min dynamic scans to test, as a proof-of-concept, whether the affinity of ERGO for radicals and/or metals, which are integrated in or very closely associated with Abeta aggregates, would trap the probe. […] The mean percent of ID/g in the brains of 5XFAD mice (n=4) were 0.81±0.09, 0.72±0.09, 0.72±0.10, 0.71±0.12, 0.72±0.08, 0.83±0.10 for cortex, hippocampus, striatum, thalamus, cerebellum and whole brain, respectively, whereas for WT mice (n=4), the values were 0.52±0.13, 0.47±0.18, 0.47±0.15, 0.42±0.18, 0.51±0.13, 0.55±0.14. […] 5XFAD brains are associated with high levels of GFAP and IBA1 expression. After PET/CT imaging, animals underwent through the cardiac perfusion process, and the brains were embedded in OCT solution for micro-sectioning. […] The hippocampal regions of 5XFAD mice, including the dentate gyrus (DG), Cornu ammonis (CA) and the surrounding regions are populated with astrocytes, which were detected and quantified by immunostaining using anti-GFAP antibody. […] Quantitatively, about 2-fold higher levels of this inflammatory marker is found in 5XFAD versus control mice (*p<0.05). In a similar observation, 5XFAD mouse brains have greater numbers of IBA1-positive activated microglia (arrows) compared to WT counterparts.
Dynamic PET imaging. The dynamic acquisition was divided into twelve 5 sec frames, four 60 sec frames, five 120 sec frames, three 5 min frames, and six 10 min scans. The data from all possible lines of response (LOR) were saved in the list mode raw data format. The raw data were then binned into 3D sinograms with a span of 3 and ring difference of 47. The images were reconstructed into transaxial slices (128×128×159) with voxel sizes of 0.0815×0.0815×0.0796 cm^3, using the MAP algorithm with 16 subsets, 4 iterations, and a beta of 0.0468. For anatomical co-registration, immediately following the PET scans, the mice received a CT scan in a NanoSPECT/CT (Mediso, Wash. D.C.) at an X-ray beam intensity of 90 mAs and x-ray peak voltage of 45 kVp. The CT images were reconstructed into 170×170×186 voxels at a voxel size of 0.4×0.4×0.4 mm^3. The PET/CT images were uploaded into Amide software (www.sourceforge.com), co-registered to an MRI template made in-house, and volumetric regions-of-interest were drawn around the cortex, hippocampus, striatum, thalamus, and cerebellum in addition to the whole brain. The PET images were normalized to the injected dose, and the time-activity-curves (TACs) of the mean activity within the ROIs were estimated for the entire duration of the scans.

SMILES | decrease in Abeta level (pixel counts), hippocampus (Abeta) | decrease in Abeta level (pixel counts), pyramidal cortex (Abeta) | decrease in Abeta level (pixel counts), thalamus (Abeta) | [11C]ERGO PET signal pertaining to oxidative stress in the brain (oxidative stress [1]) | mean percent of ID/g, cerebellum (oxidative stress [2]; 5XFAD mice) | mean percent of ID/g, cortex (oxidative stress [2]; 5XFAD mice) | mean percent of ID/g, hippocampus (oxidative stress [2]; 5XFAD mice) | mean percent of ID/g, striatum (oxidative stress [2]; 5XFAD mice) | mean percent of ID/g, thalamus (oxidative stress [2]; 5XFAD mice) | mean percent of ID/g, whole brain (oxidative stress [2]; 5XFAD mice) | mean percent of ID/g, cerebellum (oxidative stress [2]; WT mice) | mean percent of ID/g, cortex (oxidative stress [2]; WT mice) | mean percent of ID/g, hippocampus (oxidative stress [2]; WT mice) | mean percent of ID/g, striatum (oxidative stress [2]; WT mice) | mean percent of ID/g, thalamus (oxidative stress [2]; WT mice) | mean percent of ID/g, whole brain (oxidative stress [2]; WT mice)
C[N+](C)(C)[C@@H](Cc1c[nH]c(=S)[nH]1)C(=O)[O-] [ERGO, L-ergothioneine] | 4 fold | 5 fold | 2 fold | very modest reduction in PET signal |  |  |  |  |  |  |  |  |  |  |  | 
C[N+](C)([11CH3])[C@@H](Cc1c[nH]c(=S)[nH]1)C(=O)[O-] [[^11C]ERGO] |  |  |  |  | 0.72±0.08% of ID/g | 0.81±0.09% of ID/g | 0.72±0.09% of ID/g | 0.72±0.10% of ID/g | 0.71±0.12% of ID/g | 0.83±0.10% of ID/g | 0.51±0.13% of ID/g | 0.52±0.13% of ID/g | 0.47±0.18% of ID/g | 0.47±0.15% of ID/g | 0.42±0.18% of ID/g | 0.55±0.14% of ID/g
